The values that follow come from ChEMBL document CHEMBL4823249, “Discovery of a Pyrimidinedione Derivative as a Potent and Orally Bioavailable Axl Inhibitor” (J Med Chem, 2021).

The test system of one data set is SNU-449. In words: Inhibition of Gas6-stimulated cell invasion in human SNU-449 cells at […] after 24 hrs by crystal violet staining based microscopic analysis. In kind it is functional. Particulars: dose lower 5.0 µM.
The target in data set [1] is T1, Hepatocyte growth factor receptor (Homo sapiens, UniProt P08581). As to the kind of experiment: Inhibition of MET signaling in human MKN45 cells assessed as reduction in phosphorylation of ERK after 2 hrs by Western blotting analysis. The data set is classed as cell-based. Particulars: MKN-45, dose 10-100 nM. Background: A western blot detects proteins with antibodies after separation by electrophoresis.
T1 sequence (P08581 whole entry): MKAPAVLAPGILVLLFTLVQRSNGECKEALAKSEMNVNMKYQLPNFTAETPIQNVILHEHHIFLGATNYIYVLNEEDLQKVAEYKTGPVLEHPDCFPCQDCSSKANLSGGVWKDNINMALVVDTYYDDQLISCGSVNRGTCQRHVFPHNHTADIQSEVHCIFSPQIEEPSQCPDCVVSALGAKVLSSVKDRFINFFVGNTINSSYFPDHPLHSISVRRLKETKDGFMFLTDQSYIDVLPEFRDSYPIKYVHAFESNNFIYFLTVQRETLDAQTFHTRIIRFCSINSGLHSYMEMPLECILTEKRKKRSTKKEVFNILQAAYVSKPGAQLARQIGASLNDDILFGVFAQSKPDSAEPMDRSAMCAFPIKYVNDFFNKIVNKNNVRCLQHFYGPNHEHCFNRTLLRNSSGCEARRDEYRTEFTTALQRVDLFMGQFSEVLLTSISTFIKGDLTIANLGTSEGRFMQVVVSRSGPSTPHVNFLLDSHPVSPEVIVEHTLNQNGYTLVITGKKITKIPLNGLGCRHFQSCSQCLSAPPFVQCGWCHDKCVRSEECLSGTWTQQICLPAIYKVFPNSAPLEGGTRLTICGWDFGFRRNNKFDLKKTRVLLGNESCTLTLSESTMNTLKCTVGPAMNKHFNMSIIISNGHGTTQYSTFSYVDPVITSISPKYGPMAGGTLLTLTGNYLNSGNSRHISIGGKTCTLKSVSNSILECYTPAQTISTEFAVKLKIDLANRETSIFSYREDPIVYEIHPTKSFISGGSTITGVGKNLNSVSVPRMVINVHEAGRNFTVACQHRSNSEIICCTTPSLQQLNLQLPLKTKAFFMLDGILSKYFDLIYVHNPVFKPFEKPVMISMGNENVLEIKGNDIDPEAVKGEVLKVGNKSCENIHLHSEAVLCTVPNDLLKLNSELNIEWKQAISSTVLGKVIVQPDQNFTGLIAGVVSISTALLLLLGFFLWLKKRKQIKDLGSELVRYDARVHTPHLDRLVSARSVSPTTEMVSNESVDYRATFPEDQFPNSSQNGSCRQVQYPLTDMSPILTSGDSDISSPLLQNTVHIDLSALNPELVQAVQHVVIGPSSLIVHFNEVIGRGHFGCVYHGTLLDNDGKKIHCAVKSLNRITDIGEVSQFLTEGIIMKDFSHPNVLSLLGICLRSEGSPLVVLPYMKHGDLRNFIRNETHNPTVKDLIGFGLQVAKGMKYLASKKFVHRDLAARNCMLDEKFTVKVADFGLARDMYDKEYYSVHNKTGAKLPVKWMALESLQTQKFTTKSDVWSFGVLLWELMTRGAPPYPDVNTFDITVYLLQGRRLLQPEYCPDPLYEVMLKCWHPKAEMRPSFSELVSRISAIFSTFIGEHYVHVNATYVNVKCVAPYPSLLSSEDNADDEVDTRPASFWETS

The next data set concerns HCC78. In words: Antiproliferative activity against human HCC78 cells incubated for 72 hrs by SRB or CCK8 assay. In kind it is functional, cell-based. Particulars: HCC78, 72 h.
The target in data set [2] is PI3-kinase p110-delta/p85-alpha (Homo sapiens, UniProt O00329). In words: Inhibition of recombinant human full length PI3K p110delta/p85a using phosphatidylinositol-4, 5-bisphosphate as substrate incubated for 40 mins in presence of [gamma33P]ATP by scintillation counting based radiometry assay. The data set is classed as protein-complex assay.
In data set [3] the target is Proto-oncogene tyrosine-protein kinase receptor Ret (Homo sapiens, UniProt P07949). In words: Inhibition of recombinant human Ret (658 to end residues) using KKKSPGEYVNIEFG as substrate incubated for 40 mins in presence of [gamma33P]ATP by scintillation counting based radiometry assay.
Proto-oncogene tyrosine-protein kinase receptor Ret, sequence (P07949 whole entry): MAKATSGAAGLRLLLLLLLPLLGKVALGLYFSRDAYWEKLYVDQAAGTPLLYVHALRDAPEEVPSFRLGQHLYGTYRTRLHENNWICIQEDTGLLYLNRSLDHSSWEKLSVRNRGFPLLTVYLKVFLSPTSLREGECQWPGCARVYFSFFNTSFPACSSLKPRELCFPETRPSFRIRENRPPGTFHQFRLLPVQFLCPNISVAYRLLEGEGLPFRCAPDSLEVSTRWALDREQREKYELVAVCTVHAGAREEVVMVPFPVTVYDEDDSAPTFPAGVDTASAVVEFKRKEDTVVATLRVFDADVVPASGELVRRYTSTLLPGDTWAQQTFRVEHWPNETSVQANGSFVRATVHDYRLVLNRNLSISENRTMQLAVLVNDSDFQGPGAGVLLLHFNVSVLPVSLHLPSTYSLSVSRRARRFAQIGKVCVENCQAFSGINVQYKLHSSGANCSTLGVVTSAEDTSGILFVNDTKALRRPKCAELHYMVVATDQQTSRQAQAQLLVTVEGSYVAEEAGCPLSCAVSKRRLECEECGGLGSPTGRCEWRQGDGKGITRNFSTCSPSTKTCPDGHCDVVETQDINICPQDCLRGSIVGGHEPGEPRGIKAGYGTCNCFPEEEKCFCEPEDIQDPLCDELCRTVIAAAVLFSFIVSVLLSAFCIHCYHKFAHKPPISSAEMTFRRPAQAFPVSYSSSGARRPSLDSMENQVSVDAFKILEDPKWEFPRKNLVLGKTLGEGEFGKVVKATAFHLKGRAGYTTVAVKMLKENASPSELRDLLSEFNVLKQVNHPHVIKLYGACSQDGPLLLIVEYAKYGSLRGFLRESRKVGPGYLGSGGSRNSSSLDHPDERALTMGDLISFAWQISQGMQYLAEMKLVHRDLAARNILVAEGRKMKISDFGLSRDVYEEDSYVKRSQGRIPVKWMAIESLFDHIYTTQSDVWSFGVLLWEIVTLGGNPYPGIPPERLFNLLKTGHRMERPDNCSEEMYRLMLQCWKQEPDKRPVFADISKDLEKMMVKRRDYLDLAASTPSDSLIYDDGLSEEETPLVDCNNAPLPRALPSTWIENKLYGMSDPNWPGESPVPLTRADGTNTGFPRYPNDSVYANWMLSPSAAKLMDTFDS
Data set [4] concerns the target Tyrosine-protein kinase JAK1 (Homo sapiens, UniProt P23458). As to the kind of experiment: Inhibition of human JAK1 (866 to end residues) using GEEPLYWSFPAKKK as substrate after 40 mins in presence of [gamma-33ATP] by scintillation counting based radiometry assay.
Data set [5] addresses T1, Hepatocyte growth factor receptor. In words: Inhibition of MET signaling in human EBC1 cells assessed as reduction in phosphorylation of AKT after 2 hrs by Western blotting analysis. Particulars: EBC-1, dose 10-100 nM. The data set is classed as cell-based.
Another data set has as its target Ephrin type-A receptor 2 (Homo sapiens, UniProt P29317). As to the kind of experiment: Inhibition of recombinant human EphA2 (596 to 900 residues) using poly(Glu, Tyr) 4:1 as substrate incubated for 40 mins in presence of [gamma-33ATP] by scintillation counting based radiometry assay.
Data set [6] concerns the target T2, Tyrosine-protein kinase receptor UFO (Mus musculus) (UniProt Q00993).
T2 sequence (whole entry): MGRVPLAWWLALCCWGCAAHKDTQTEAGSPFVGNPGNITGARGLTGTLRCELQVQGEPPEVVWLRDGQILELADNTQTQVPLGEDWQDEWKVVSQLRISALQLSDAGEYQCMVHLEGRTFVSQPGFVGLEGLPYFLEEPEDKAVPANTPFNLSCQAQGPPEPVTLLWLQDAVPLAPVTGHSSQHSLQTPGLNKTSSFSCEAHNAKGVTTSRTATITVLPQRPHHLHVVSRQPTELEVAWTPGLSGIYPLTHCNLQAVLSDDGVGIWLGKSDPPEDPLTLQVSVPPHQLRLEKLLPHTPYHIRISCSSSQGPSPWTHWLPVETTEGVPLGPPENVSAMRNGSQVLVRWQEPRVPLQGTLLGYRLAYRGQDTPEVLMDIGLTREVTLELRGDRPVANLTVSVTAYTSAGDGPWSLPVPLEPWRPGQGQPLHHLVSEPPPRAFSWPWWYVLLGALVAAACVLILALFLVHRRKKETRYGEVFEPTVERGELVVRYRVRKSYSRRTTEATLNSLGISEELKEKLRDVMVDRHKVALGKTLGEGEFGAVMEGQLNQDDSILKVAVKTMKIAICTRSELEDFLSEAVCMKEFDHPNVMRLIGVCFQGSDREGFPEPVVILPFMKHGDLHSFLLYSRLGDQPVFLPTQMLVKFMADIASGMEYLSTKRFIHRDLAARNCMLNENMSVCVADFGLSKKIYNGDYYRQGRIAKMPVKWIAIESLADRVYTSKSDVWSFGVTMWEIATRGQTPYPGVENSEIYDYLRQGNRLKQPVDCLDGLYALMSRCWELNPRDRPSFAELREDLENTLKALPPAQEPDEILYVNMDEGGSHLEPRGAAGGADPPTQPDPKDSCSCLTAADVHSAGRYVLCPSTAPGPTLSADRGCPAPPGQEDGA
In words: Inhibition of AXL in mouse BaF3/TEL-AXL cells assessed as reduction in phosphorylation of AKT at 1 to 15 nM after 2 hrs by Western blotting analysis. In kind it is cell-based. Particulars: dose 1-15 nM.

Data set [7] is described as follows: Inhibition of recombinant human PKA using Kemptide as substrate measured after 40 mins in presence of [gamma33P]ATP by scintillation counting based radiometry assay.
The target of data set [8] is Vascular endothelial growth factor receptor 1 (Homo sapiens, UniProt P17948). In words: Inhibition of recombinant human FLT1 (783 to end residues) using KKKSPGEYVNIEFG as substrate incubated for 40 mins in presence of [gamma-33ATP] by scintillation counting based radiometry assay.
Vascular endothelial growth factor receptor 1, sequence (P17948 whole entry): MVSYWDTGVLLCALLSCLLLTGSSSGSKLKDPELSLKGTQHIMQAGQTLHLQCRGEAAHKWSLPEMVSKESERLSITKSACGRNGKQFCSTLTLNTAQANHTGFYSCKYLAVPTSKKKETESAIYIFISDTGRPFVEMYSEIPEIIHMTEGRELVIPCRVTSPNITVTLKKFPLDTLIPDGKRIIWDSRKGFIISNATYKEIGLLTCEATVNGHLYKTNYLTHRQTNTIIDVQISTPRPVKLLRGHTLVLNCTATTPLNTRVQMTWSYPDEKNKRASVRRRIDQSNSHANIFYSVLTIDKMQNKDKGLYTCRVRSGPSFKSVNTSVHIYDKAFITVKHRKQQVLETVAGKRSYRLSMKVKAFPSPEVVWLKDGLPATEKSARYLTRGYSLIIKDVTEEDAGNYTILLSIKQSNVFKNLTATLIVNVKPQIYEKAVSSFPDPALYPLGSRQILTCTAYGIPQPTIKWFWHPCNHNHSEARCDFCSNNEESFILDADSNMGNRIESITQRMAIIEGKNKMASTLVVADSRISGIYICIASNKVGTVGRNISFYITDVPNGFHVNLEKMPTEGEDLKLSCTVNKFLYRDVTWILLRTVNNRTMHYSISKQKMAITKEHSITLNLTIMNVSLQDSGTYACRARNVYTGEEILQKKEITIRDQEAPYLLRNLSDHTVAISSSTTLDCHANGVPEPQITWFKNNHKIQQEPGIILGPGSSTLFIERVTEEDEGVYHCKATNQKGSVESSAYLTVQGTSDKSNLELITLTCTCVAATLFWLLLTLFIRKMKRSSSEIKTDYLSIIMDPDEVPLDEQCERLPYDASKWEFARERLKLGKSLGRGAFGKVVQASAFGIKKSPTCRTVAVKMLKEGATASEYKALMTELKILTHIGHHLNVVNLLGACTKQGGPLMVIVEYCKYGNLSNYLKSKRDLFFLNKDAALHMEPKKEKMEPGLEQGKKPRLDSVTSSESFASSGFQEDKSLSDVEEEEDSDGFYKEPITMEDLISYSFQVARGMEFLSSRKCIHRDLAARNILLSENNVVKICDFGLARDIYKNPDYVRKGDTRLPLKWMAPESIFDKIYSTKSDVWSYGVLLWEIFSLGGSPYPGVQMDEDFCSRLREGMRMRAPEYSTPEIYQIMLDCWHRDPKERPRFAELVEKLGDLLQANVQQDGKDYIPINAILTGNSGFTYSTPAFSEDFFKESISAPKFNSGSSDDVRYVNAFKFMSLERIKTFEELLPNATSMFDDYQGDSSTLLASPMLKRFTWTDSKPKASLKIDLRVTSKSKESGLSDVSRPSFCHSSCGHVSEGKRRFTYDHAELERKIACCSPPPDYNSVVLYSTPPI
Data set [9] has as its target Tyrosine-protein kinase ABL1 (Homo sapiens, UniProt P00519). In words: Inhibition of human recombinant ABL (27 to end residues) using EAIYAAPFAKKK as substrate incubated for 40 mins in presence of [gamma33P-ATP] by radiometric scintillation counting analysis.
A short description of data set [10]: Clearance in ICR mouse at 1 mg/kg, iv measured upto 24 hrs by LC-MS analysis. The data set is classed as ADME, organism-based. Particulars: in vivo.
The target of data set [11] is Tyrosine-protein kinase SYK (Homo sapiens, UniProt P43405). In words: Inhibition of recombinant human full length SYK using poly(Glu, Tyr) 4:1 as substrate incubated for 40 mins in presence of [gamma33P]ATP by scintillation counting based radiometry assay.
Data set [12] is described as follows: Half life in ICR mouse at 3 mg/kg, po measured upto 24 hrs by LC-MS analysis. In kind it is ADME, organism-based. Particulars: in vivo.
The target in the next data set is CDK4/Cyclin D3 (Homo sapiens, UniProt P11802). As to the kind of experiment: Inhibition of recombinant full length human CDK4/CyclinD3 using Rb fragment as substrate incubated for 40 mins in presence of [gamma-33ATP] by scintillation counting based radiometry assay. The data set is classed as protein-complex assay.
CDK4/Cyclin D3, sequence (P11802 whole entry, the tested form may be a part): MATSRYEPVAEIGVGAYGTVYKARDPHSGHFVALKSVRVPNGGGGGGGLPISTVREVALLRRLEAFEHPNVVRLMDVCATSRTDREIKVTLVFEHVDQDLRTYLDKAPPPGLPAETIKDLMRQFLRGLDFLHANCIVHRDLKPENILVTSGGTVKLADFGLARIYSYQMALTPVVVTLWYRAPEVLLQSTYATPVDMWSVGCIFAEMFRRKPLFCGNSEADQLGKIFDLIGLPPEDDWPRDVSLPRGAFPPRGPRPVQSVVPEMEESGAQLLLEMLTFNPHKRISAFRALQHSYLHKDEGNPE
CDK4/Cyclin D3, sequence (P30281 whole entry, further chain, the tested form may be a part): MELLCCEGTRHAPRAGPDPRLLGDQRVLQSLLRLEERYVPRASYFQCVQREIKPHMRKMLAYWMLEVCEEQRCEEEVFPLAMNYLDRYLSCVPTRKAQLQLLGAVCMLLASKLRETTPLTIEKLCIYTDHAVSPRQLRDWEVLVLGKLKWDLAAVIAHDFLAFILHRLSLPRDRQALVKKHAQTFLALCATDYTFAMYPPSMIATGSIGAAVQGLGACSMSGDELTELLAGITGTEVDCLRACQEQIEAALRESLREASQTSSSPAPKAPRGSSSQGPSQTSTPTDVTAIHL
For data set [13], the target named is Dual specificity protein kinase CLK1 (Homo sapiens, UniProt P49759). In words: Inhibition of human recombinant CLK1 (130 to end residues) using ERMRPRKRQGSVR as substrate incubated for 40 mins in presence of [gamma-33ATP] by radiometric scintillation counting analysis.
A short description of data set [14]: AUC(0 to infinity) in Sprague-Dawley rat at 3 mg/kg, po measured upto 24 hrs by LC-MS analysis. The data set is classed as ADME, organism-based. Also on record: route oral, dose 3 mg/kg, time <=24. Particulars: in vivo.
For another data set, the system named is HL-60. As to the kind of experiment: Antiproliferative activity against human HL-60 cells incubated for 72 hrs by SRB or CCK8 assay. The data set is classed as functional, cell-based. Particulars: HL-60, 72 h.
Data set [15] addresses Serine/threonine-protein kinase mTOR (Homo sapiens, UniProt P42345). In words: Inhibition of full length recombinant human mTOR incubated for 40 mins in presence of [gamma-33ATP] by scintillation counting based radiometry assay.
For data set [16], the target named is Serine/threonine-protein kinase A-Raf (Homo sapiens, UniProt P10398). In words: Inhibition of recombinant human A-Raf (273 to end residues) using myelin basic protein as substrate incubated for 40 mins in presence of [gamma-33ATP] by scintillation counting based radiometry assay.
Serine/threonine-protein kinase A-Raf, sequence (P10398 whole entry): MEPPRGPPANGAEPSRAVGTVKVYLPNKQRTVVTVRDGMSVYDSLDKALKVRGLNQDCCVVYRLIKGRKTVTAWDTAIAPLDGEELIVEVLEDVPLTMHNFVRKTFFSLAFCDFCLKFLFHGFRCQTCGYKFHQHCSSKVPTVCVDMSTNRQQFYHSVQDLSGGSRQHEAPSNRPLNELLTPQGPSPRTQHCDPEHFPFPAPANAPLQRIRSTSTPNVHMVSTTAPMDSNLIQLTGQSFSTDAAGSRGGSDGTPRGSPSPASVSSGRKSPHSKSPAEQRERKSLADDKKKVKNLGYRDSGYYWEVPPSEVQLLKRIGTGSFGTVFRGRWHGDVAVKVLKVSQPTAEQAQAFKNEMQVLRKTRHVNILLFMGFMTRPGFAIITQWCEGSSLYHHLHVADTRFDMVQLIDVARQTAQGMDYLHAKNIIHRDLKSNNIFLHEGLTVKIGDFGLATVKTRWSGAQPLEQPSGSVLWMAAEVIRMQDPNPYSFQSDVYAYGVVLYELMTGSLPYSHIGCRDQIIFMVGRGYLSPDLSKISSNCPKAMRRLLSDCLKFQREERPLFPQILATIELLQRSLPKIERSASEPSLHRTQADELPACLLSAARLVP
The target in data set [17] is Epidermal growth factor receptor (Homo sapiens, UniProt P00533). In words: Inhibition of recombinant human EGFR (696 to end residues) using poly(Glu, Tyr) 4:1 as substrate incubated for 40 mins in presence of [gamma-33ATP] by scintillation counting based radiometry assay.

The source made the active and inactive calls. The rule behind the calls is not given here.

With `CC(C)n1cc(C(=O)Nc2ccc(Oc3ccnc(NC(=O)C4CC4)c3)c(F)c2)c(=O)n(-c2ccc(F)cc2)c1=O`, the inhibition entry (in the data set on SNU-449; in [6]) was “Active” each time. For the same compound, the inhibition entry in data set [1] and in data set [5] was “Dose-Dependent Effect” throughout. Moreover, the IC50 with HCC78 is over 10 µM; in data set [2], over 1 µM; in data set [3], over 1 µM; in data set [4], over 1 µM; at Ephrin type-A receptor 2 it was over 0.1 µM; in [7] it was over 1 µM. For the same compound, the IC50 is over 1 µM in [8]; over 1 µM in data set [9]; over 0.1 µM in data set [11]; over 1 µM at CDK4/Cyclin D3; over 1 µM in data set [13]; over 10 µM with HL-60. Further, the IC50 in [15], in [16] and in data set [17] was over 1 µM each time. The clearance in [10] is 2.29 mL/min/kg. The compound further showed a half-life in data set [12] of 5.2 h. In addition, in data set [14], the AUC(0-inf) stood at 43900 ng·h/mL.

In general, IC50 refers to the concentration needed to halve the response being measured. Broadly, the clearance is a measure of how efficiently the substance is removed, as volume per time. A word on the half-life: it is how long it takes for the measured level to halve. Low values mean rapid decline, high ones slow decline. A word on the AUC(0-inf): it is the area under the concentration-time curve extrapolated to infinity. High values mean more exposure, low ones less exposure.
